Data reported in patent US8642656B2, “Calixarene-based peptide conformation mimetics, methods of use, and methods of making” (priority 2004, dated 2014).
Where two headings read alike, the source gives them in different places.

Assays:
[1] = tested on: LPS from E. coli serotype 0111:B4; assay: LPS neutralization assay (Limulus amoebocyte lysate, QCL-1000); type: biochemical; details: read-out: IC50 values (μM) for LPS binding, E. coli 0111:B4
Excerpt: (§1) The ability of compounds to neutralize endotoxin was detected in vitro by using the chromogenic QCL-1000 kit from BioWhittaker, Inc. (Walkersville, Md.), and as described in their protocol. This Limulus amoebocyte lysate (LAL) assay is quantitative for Gram negative bacterial endotoxin (lipopolysaccharide, LPS). In this assay compounds that are active inhibit the LPS-mediated activation of a proenzyme whose active form would release p-nitroaniline (pNA) from a colorless synthetic substrate producing a yellow color (pNA) whose absorption is monitored spectrophotometrically at 405-410 nm. The initial rate of enzyme activation is proportional to the concentration of endotoxin present.
(§2) Variants of LPS from six Gram negative bacteria were used: E. coli serotypes 0111:B4 (Combrex, Walkersville, Md.) and 055:B5 (Sigma, St. Louis, Mo.); Klebsiella pneumoniae (List Biologies, San Jose, Calif.); Pseudomonas aeruginosa (List Biologies, San Jose, Calif.); Salmonella typhimurium (List Biologies, San Jose, Calif.), and Serratia marcascens (List Biologies, San Jose, Calif.). The concentration of compound required to neutralize a given LPS and therefore to inhibit the Limulus amoebocyte lysate driven by 0.04 units of any given LPS was determined by dose response curves fit by using a standard sigmoidal function to determined the JC50 value for each lopomimetic compound. The 0.04 units corresponds to 0.01 ng LPS from E. coli serotype 055:B5, 0.01 ng LPS from E. coli serotype 0111:B4, 0.003 ng LPS from K. pneumoniae, 0.01 ng LPS from P. aeruginosa, 0.03 ng LPS from S. typhimurium, and 0.03 ng LPS from S. marcascens.

[2] = tested on: LPS from E. coli serotype 055:B5; assay: as above; type: biochemical
Excerpt: as §1, §2

LPS from P. aeruginosa = assay: as above; type: biochemical, Pseudomonas aeruginosa; details: read-out: IC50 values (μM) for LPS binding, P.a.
Excerpt: as §1, §2

LPS from K. pneumoniae = assay: as above; type: biochemical, Klebsiella pneumoniae; details: read-out: IC50 values (μM) for LPS binding, Klebsiella
Excerpt: as §1, §2

LPS from S. typhimurium = assay: as above; type: biochemical, Salmonella typhimurium; details: read-out: IC50 values (μM) for LPS binding, Salmonella
Excerpt: as §1, §2

LPS from S. marcascens = assay: as above; type: biochemical, Serratia marcascens; details: read-out: IC50 values (μM) for LPS binding, Serratia
Excerpt: as §1, §2

E. coli J96 = assay: Bactericidal assay on J96; type: cell-based; details: in the micromolar range (Table 1)
Excerpt: Pseudomonas aeruginosa type 1 is a clinical, smooth strain isolate stereotyped by using the scheme of Homma et al., Japan. J. Exp. Med. 46, 329-336 (1976) and maintained in the lab by monthly transfer on blood agar plates. E. coli J96, IA2, and H5 are smooth strain, uropathogenic clinical isolates kindly maintained and provided by J. R. Johnson and described in Johnson et al., J. Infect. Disease 173, 920-926 (1996) for J96 and IA2 and in Johnson et al., J. Infect. Disease 173, 746-749 (1996) for H5. J5 is an E. coli rough strain initially referenced by G. R. Siber and discussed in Warren et al., Infect. Immunity 55, 1668-1673 (1987) and is analogous to the smooth strain E. coli 0111:B4 used in the BioWhittaker LAL endotoxin detection and quantitation kit described below. Gram-positive MN8 and MNHO are two patient isolates of Staphylococcus aureus, which were kindly provided by P. M. Schlievert and described in Bohach et al., Rev. Infect. Diseases 11, 75-82 (1989) for MNHO and in Schlievert et al., J. Infect. Diseases 147, 236-242 (1983) for MN8. All cultures are maintained on nutrient agar plates.
Pyrogen-free solutions were used throughout the assay. Log phase bacteria were obtained by transferring an overnight culture or scraping crystals off-85° C glycerol stocks of overnight cultures. Bacteria were washed and resuspended in 0.9% sodium chloride with adjustment to an optical density at 650 nm which yields 3×10^8 CFU/ml. Bacteria were then diluted 1:10 in 0.08 M citrate phosphate buffer, pH 7.0 (prepared by mixing 0.08 M citric acid with 0.08 M dibasic sodium phosphate). Bacteria (0.15 ml) were incubated with the test compound in a final volume of 1.0 ml of buffer. The assay was done in 17×100 polypropylene tubes in a reciprocal water bath shaker at 37° C for 30 minutes. Following this 30 minute (min) incubation. 10-fold dilutions were made in 0.9% sodium chloride. Dilutions were done to 10^−4 and 20 μl of each dilution was streaked across an agar plate. Gram-positive organisms were plated on nutrient agar plates containing 2% agar and Gram-negative organisms were plated on MacConkey agar (2%). Plates were incubated overnight at 37° C and counted the next morning. The dilution containing 10-100 bacteria was counted and the number multiplied by 50 to adjust all counts to the number bacteria killed per milliliter. Compound concentrations were converted to logarithm base ten and graphed. Bactericidal activity was determined by dose response where LD50 values were determined by best fits of a sigmoidal curve to the dose response data.

[3] = Table 3, errors estimated ±30%, read-out: IC50 values (μM) for LPS binding, E. coli 055:B5
[4] = Table 2, read-out: IC50 values (μM) for LPS binding, E. coli 055:B4

Compound | IC50 ([1]; Table 3, errors estimated ±30%) | IC50 [2, 3] | IC50 (LPS from P. aeruginosa; Table 3, errors estimated ±30%) | IC50 (LPS from K. pneumoniae; Table 3, errors estimated ±30%) | IC50 (LPS from S. typhimurium; Table 3, errors estimated ±30%) | IC50 (LPS from S. marcascens; Table 3, errors estimated ±30%) | IC50 ([1]; Table 2) | IC50 [2, 4] | IC50 (LPS from P. aeruginosa; Table 2) | IC50 (LPS from K. pneumoniae; Table 2) | IC50 (LPS from S. typhimurium; Table 2) | IC50 (LPS from S. marcascens; Table 2) | bactericidal activity (in words) (E. coli J96)
5,11,17,23-Tetra-tert-butyl-25-(2-aminoethoxy)-27-(2-guanidinoethoxy)-26,28-dihydroxy Calix[4]arene trifluoroacetic acid salt [Compound 28] | > 5 µM | 4.1 µM | > 5 µM | > 5 µM | 2.6 µM | > 5 µM |  |  |  |  |  |  | 
5,17-Di-(2-methallyl)-11,23-diallyl-25,26,27,28-tetrakis-N—(N,N-dimethyl-2-aminoethyl) carbamoylmethoxy calix[4]arene [Compound 41] | 4.7 µM | 3.6 µM | > 5 µM | > 5 µM | > 5 µM | > 5 µM |  |  |  |  |  |  | 
5,17-Di-(2-methylpropyl)-11,23-dipropyl-25,26,27,28-tetrakis-N—(N,N-dimethyl-2-aminoethyl)carbamoylmethoxy calix[4]arene [Compound 17] | 3.7 µM | 3.8 µM | > 5 µM | 2.1 µM | 3.1 µM | > 5 µM |  |  |  |  |  |  | 
5,17-Di-(hydroxycabonyl)ethyl-25,27-di-(3-methylbutoxy)-26,28-dihydroxycalix[4]arene [Compound 47] | > 5 µM | > 5 µM | > 5 µM | > 5 µM | > 5 µM | > 5 µM | > 5 µM | > 5 µM | > 5 µM | > 5 µM | > 5 µM | > 5 µM | 
25,27-Bis(2-guanidinoethoxy)-26,28-dihydroxy calix[4]arene trifluoroacetic acid salt [Compound 36] | 3.9 µM | 4.1 µM | > 5 µM | > 5 µM | > 5 µM | > 5 µM |  |  |  |  |  |  | 
25,27-Bis[N-(2-aminoethyl)carbamoylmethoxy]-26,28-dihydroxy calix[4]arene [Compound 39] | > 5 µM | > 5 µM | > 5 µM | > 5 µM | > 5 µM | > 5 µM | 1.6 µM | 0.9 µM | 0.8 µM | 0.3 µM | 0.6 µM | 1.5 µM | 
25,27-Bis[N—(N,N-dimethyl-2-aminoethyl)carbamoylmethoxy]-26,28-dihydroxy calix[4]arene [Compound 38] | > 5 µM | > 5 µM | > 5 µM | > 5 µM | > 5 µM | > 5 µM |  |  |  |  |  |  | 
CN(C)CCNC(=O)COc1c2cc(C(C)(C)C)cc1Cc1cc(C(C)(C)C)cc(c1OCC(=O)NCCN(C)C)Cc1cc(C(C)(C)C)cc(c1OCC(=O)NCCN(C)C)Cc1cc(C(C)(C)C)cc(c1OCC(=O)NCCN(C)C)C2 [Compound 3] | > 5 µM | > 5 µM | > 5 µM | > 5 µM | > 5 µM | > 5 µM | > 5 µM | 4.4 µM | > 5 µM | 0.08 µM | 4.1 µM | > 5 µM | reasonably good bactericidal activity
CC(C)(C)c1cc2c(OCC(=O)NCCN)c(c1)Cc1cc(C(C)(C)C)cc(c1OCC(=O)NCCN)Cc1cc(C(C)(C)C)cc(c1OCC(=O)NCCN)Cc1cc(C(C)(C)C)cc(c1OCC(=O)NCCN)C2 [Compound 4] | 1.6 µM | 0.9 µM | 0.8 µM | 0.3 µM | 0.6 µM | 1.5 µM | 2.7 µM | 0.05 µM | > 5 µM | 0.4 µM | 0.8 µM | > 5 µM | 
CCCc1cc2c(OCC(=O)NCCN(C)C)c(c1)Cc1cc(CCC)cc(c1OCC(=O)NCCN(C)C)Cc1cc(CCC)cc(c1OCC(=O)NCCN(C)C)Cc1cc(CCC)cc(c1OCC(=O)NCCN(C)C)C2 [Compound 11b] | 2.7 µM | 0.05 µM | > 5 µM | 0.4 µM | 0.8 µM | > 5 µM |  |  |  |  |  |  | 
NCCNC(=O)COc1c2cccc1Cc1cccc(c1O)Cc1cccc(c1OCC(=O)NCCN)Cc1cccc(c1O)C2 [Compound 20] |  |  |  |  |  |  | > 5 µM | > 5 µM | > 5 µM | > 5 µM | 1.2 µM | > 5 µM | 
CC(C)CCOc1c2cccc1Cc1cc(CCCP(=O)(O)O)cc(c1O)Cc1cccc(c1OCCC(C)C)Cc1cc(CCCP(=O)(O)O)cc(c1O)C2 [Compound 48] | > 5 µM | > 5 µM | > 5 µM | > 5 µM | > 5 µM | > 5 µM | > 5 µM | > 5 µM | > 5 µM | > 5 µM | > 5 µM | > 5 µM | 
CC(C)CCOc1c2cccc1Cc1cc(CCCOS(=O)(=O)O)cc(c1O)Cc1cccc(c1OCCC(C)C)Cc1cc(CCCOS(=O)(=O)O)cc(c1O)C2 [Compound 49] | 5 µM | 5 µM | > 5 µM | 2.1 µM | > 5 µM | 4.2 µM | 5 µM | 5 µM | > 5 µM | 2.1 µM | > 5 µM | 4.2 µM | 
polymyxin B [PmxB, reference compound] | 0.03 µM | 0.03 µM | 0.003 µM | 0.01 µM | 0.3 µM | > 5 µM | 0.03 µM | 0.03 µM | 0.003 µM | 0.01 µM | 0.1 µM | > 5 µM | 
